Patent US20080175902A1, “Methods for slowing the progression of multiple sclerosis” (University of Plymouth, priority 2006, published 2008)

Assays:
[1] = test system: multiple sclerosis patients; details: 15 week trial; cited from earlier work
[2] = test system: patients with multiple sclerosis with problematic spasticity; experiment: Ashworth score of spasticity, randomized placebo-controlled 15 week study; format: in vivo, human; details: baseline to 13 weeks follow-up
[3] = test system: patients with multiple sclerosis; experiment: Timed 10 metre walk / ability to walk, 52 week follow up; format: in vivo, human; details: end of 52 week study
Source text: (§1) In order to reduce the potential for unmasking bias from treatment side effects, two study personnel were used at each centre. A treating physician monitored the dosage, side effects, and patient wellbeing, while an assessor (usually a physiotherapist) measured the Ashworth score, timed 10 metre walk, and Rivermead Mobility Index (RMI). […] Assessors remained blinded to any discussion of dosage or side effects, and when evaluating patients' spasticity, were instructed not to have access to their assessment scores from previous visits. […]
(§2) Times taken to complete a 10 metre walk were analysed using the Kruskal-Wallis test, and non-parametric methods were used to produce confidence intervals for the median. The RMI, UKNDS, postal BI, and GHQ-30 were each analysed using non-parametric analysis of variance to compare the groups. EDSS scores were analysed using Fisher's exact test. Category rating scales were analysed using contingency table analysis. […]

[4] = test system: patients with multiple sclerosis; experiment: Timed 10 meter walk, 15 week study; format: in vivo, human
Method: (§3) Secondary outcomes were also measured in the above-described study. Such secondary outcomes included the Rivermead mobility index (See e.g. Collen, F. M. et al., The Rivermead mobility index: a further development of the Rivermead motor assessment. Int. Disanil. Stud. 1991; 13:50 54) hereby incorporated by reference in its entirety, a timed 10 meter walk, four self completion questionnaires—the United Kingdom neurological disability score (See e.g. Sharrack, B., Hughes R. A., The Guy's neurological disability scale (GNDS): a new disability measure for multiple sclerosis. Mult. Sder. 1999; 5: 223-33), and a series of nine category-rating scales. For the category-rating scale assessment, patients were asked to assess how their symptoms had been over the previous week compared with how they were just before the study started. Categories included irritability, depression, tiredness, muscle stiffness, tremor, pain, sleep, muscle spasms, and amount of energy.
With respect to secondary outcome measures, 322 patients provided at least one baseline walk time. Of these, seven (1 cannabis extract, 3 delta-9-THC, 3 placebo) dropped out of the trial. Walk times were obtained from 278 patients at visit seven. In total, 20 patients were unable to walk (8 cannabis extract, 5 delta-9-THC, 7 placebo) and very large walk times were substituted for these individuals.

[5] = test system: patients with multiple sclerosis; experiment: Rivermead Mobility Index (RMI), 52 week follow up; format: in vivo, human; details: FIG. 6
Source text: as §1, §2

patients with MS = details: 4 week period, oral; cited from earlier work
[6] = test system: patients with multiple sclerosis; experiment: Category-rating scales of symptoms, 15 week study; format: in vivo, human; details: category rating vs before study start
Method: as §3
Category rating scales were used to assess whether patients felt their symptoms had improved while on treatment relative to before start of treatment. Overall, patients felt that symptoms of pain, sleep quality, spasms, and had improved while on active treatment.

[7] = test system: patients with multiple sclerosis; experiment: Patient assessment of treatment benefit at visit 8; format: in vivo, human; details: patient assessment at visit 8
Source text: At visit 8 in the study described in Examples 1 and 2, patients were asked uestions about whether treatment had improved pain, tremor, spasticity, or ymptoms. […] Overall, more patients perceived an improvement in spasticity and pain when taking the active treatments than when taking placebo. Difference in perception of improvement in tremor was not statistically significant and no treatment effect on bladder symptoms was identified. Although there was no stratification for these specific symptoms between groups, the groups were broadly balanced for these symptoms apart from bladder symptoms, where there were fewer patients with urinary symptoms in the group taking, delta-9-THC.

Q: For `CCCCCc1cc(O)c2c(c1)OC(C)(C)[C@@H]1CCC(C)=C[C@@H]21` (relative stereo) [delta-9-THC, Delta-9-Tetrahydrocannabinol], which “slowing of progression of MS” value [1] is on record?
A: did not yield results indicating that cannabinoids including dronabinol slowed progression of MS

Q: And the “Mean (SD) change in Ashworth score, lower-body muscle groups” value [2]?
A: 1.39 (5.21)

Q: What about the “Mean (SD) change in Ashworth score, upper-body muscle groups” value [2] of the same compound?
A: 0.48 (4.70)

Q: And the “Mean (SD) change in total Ashworth score (baseline minus follow-up)” value ([2]; all muscle groups)?
A: 1.86 (7.95)

Q: What about the “proportion of patients unable to walk at the end of the study who could walk at baseline” value [3] of the same compound?
A: 6%

Q: What about the “reduction of median time taken to walk 10 meters from baseline to follow-up” value ([4]; baseline to visit 7) of the same compound?
A: 12%

Q: What about the “patients unable to walk (number)” value ([4]; visit 7) of the same compound?
A: 5

Q: And the “treatment effect on Rivermead Mobility Index” value [5]?
A: Suggestion of treatment effect

Q: And the “changes in Ashworth scores” value (patients with MS)?
A: no significant changes

Q: What about the “Depression: Deterioration, % of patients” value [6] of the same compound?
A: (34%)

Q: What about the “Depression: Deterioration, number of patients” value [6] of the same compound?
A: 42

Q: What about the “Depression: Improvement, % of patients” value [6] of the same compound?
A: (29%)

Q: And the “Depression: Improvement, number of patients” value [6]?
A: 36

Q: What about the “Depression: Same, % of patients” value [6] of the same compound?
A: (38%)

Q: And the “Depression: Same, number of patients” value [6]?
A: 47

Q: What about the “Energy: Deterioration, % of patients” value [6] of the same compound?
A: (28%)

Q: And the “Energy: Deterioration, number of patients” value [6]?
A: 49

Q: And the “Energy: Improvement, % of patients” value [6]?
A: (35%)

Q: What about the “Energy: Improvement, number of patients” value [6] of the same compound?
A: 61

Q: And the “Energy: Same, % of patients” value [6]?
A: (36%)

Q: And the “Energy: Same, number of patients” value [6]?
A: 63

Q: What about the “Irritability: Deterioration, % of patients” value [6] of the same compound?
A: (29%)

Q: What about the “Irritability: Deterioration, number of patients” value [6] of the same compound?
A: 32

Q: What about the “Irritability: Improvement, % of patients” value [6] of the same compound?
A: (33%)

Q: And the “Irritability: Improvement, number of patients” value [6]?
A: 37

Q: What about the “Irritability: Same, % of patients” value [6] of the same compound?
A: (38%)

Q: And the “Irritability: Same, number of patients” value [6]?
A: 42

Q: What about the “Pain: Deterioration, % of patients” value [6] of the same compound?
A: (17%)

Q: What about the “Pain: Deterioration, number of patients” value [6] of the same compound?
A: 22

Q: What about the “Pain: Improvement, % of patients” value [6] of the same compound?
A: (50%)

Q: And the “Pain: Improvement, number of patients” value [6]?
A: 64

Q: What about the “Pain: Same, % of patients” value [6] of the same compound?
A: (33%)

Q: What about the “Pain: Same, number of patients” value [6] of the same compound?
A: 43

Q: What about the “Shake/tremor: Deterioration, % of patients” value [6] of the same compound?
A: (25%)

Q: And the “Shake/tremor: Deterioration, number of patients” value [6]?
A: 32

Q: And the “Shake/tremor: Improvement, % of patients” value [6]?
A: (41%)

Q: And the “Shake/tremor: Improvement, number of patients” value [6]?
A: 52

Q: And the “Shake/tremor: Same, % of patients” value [6]?
A: (34%)

Q: And the “Shake/tremor: Same, number of patients” value [6]?
A: 44

Q: What about the “Sleep: Deterioration, % of patients” value [6] of the same compound?
A: (16%)

Q: And the “Sleep: Deterioration, number of patients” value [6]?
A: 24

Q: What about the “Sleep: Improvement, % of patients” value [6] of the same compound?
A: (47%)

Q: What about the “Sleep: Improvement, number of patients” value [6] of the same compound?
A: 71

Q: And the “Sleep: Same, % of patients” value [6]?
A: (38%)

Q: And the “Sleep: Same, number of patients” value [6]?
A: 57

Q: And the “Spasms: Deterioration, % of patients” value [6]?
A: (22%)

Q: And the “Spasms: Deterioration, number of patients” value [6]?
A: 27

Q: And the “Spasms: Improvement, % of patients” value [6]?
A: (49%)

Q: And the “Spasms: Improvement, number of patients” value [6]?
A: 81

Q: What about the “Spasms: Same, % of patients” value [6] of the same compound?
A: (29%)

Q: What about the “Spasms: Same, number of patients” value [6] of the same compound?
A: 49

Q: And the “Spasticity: Deterioration, % of patients” value [6]?
A: (27%)

Q: What about the “Spasticity: Deterioration, number of patients” value [6] of the same compound?
A: 47

Q: And the “Spasticity: Improvement, % of patients” value [6]?
A: (51%)

Q: And the “Spasticity: Improvement, number of patients” value [6]?
A: 89

Q: And the “Spasticity: Same, % of patients” value [6]?
A: (23%)

Q: What about the “Spasticity: Same, number of patients” value [6] of the same compound?
A: 40

Q: And the “Tiredness: Deterioration, % of patients” value [6]?
A: (48%)

Q: What about the “Tiredness: Deterioration, number of patients” value [6] of the same compound?
A: 76

Q: And the “Tiredness: Improvement, % of patients” value [6]?
A: (22%)

Q: What about the “Tiredness: Improvement, number of patients” value [6] of the same compound?
A: 35

Q: What about the “Tiredness: Same, % of patients” value [6] of the same compound?
A: (29%)

Q: And the “Tiredness: Same, number of patients” value [6]?
A: 46

Q: And the “Bladder symptom improvement: No, % of patients” value [7]?
A: 59%

Q: What about the “Bladder symptom improvement: No, number of patients” value [7] of the same compound?
A: 97

Q: And the “Bladder symptom improvement: Yes, % of patients” value [7]?
A: 40%

Q: What about the “Bladder symptom improvement: Yes, number of patients” value [7] of the same compound?
A: 67
